Data: patent publication US4774241A, “Derivative of benzoquinonylphenyl alkanoic acid amide” (Suntory Limited, priority 1986, dated 1988)

Experiments:
[1] = Acute Toxicity Test; details: mouse, in vivo; ip, mice, suspended in 1% arabic gum
Source text: Male ddY-STF mice having an age of 4 to 5 weeks and a body weight of 22 to 30 g were used for evaluating the acute toxicity of the present compounds. The sample compound was suspended in 1% arabic gum and was intraperitoneally injected.

[2] = tested on: Male ddY mice (hypobaric hypoxia); experiment: Hypobaric Hypoxia Activity (survival time of mice at 180 mmHg); type: in vivo; details: Mus musculus, ip, 30 minutes before evacuation, survival time vs. control, read-out: Hypobaric Hypoxia (Minimum effective dose)
Method: (§1) The activities of some compounds prepared in the above-mentioned Synthetic Examples and the Comparative Examples were evaluated as follows.
1. Hypobaric Hypoxia Activity
Male ddY mice having a body weight of 22 to 30 g were used (i.e., 7 to 10 mice in one group). The mice were placed in a desiccator having a volume of about 1 liter and the desiccator was evacuated and then, the sample compound was intraperitoneally injected […]. into the mice. The desiccator was evacuated 30 minutes after the injection and the time from the start of the evacuation to the termination of breathing by the mice was determined to be the survival time. If a mouse was still alive 15 minutes after exposure to the hypoxia, the survival time was assumed to be 15 minutes. The results were compared with a control group, to which only a liquid medium (e.g., physiological saline) was injected.

[3] = tested on: Male ddY mice (global ischemia); experiment: Global Ischemia Activity (gasping time after decapitation); type: in vivo; details: ip
Method: as §1
2. Global Ischemia Activity
Male ddY mice having a body weight of 22 to 30 g were used (i.e., 6 mice in one group). The sample compound was intraperitoneally injected into the mice and the mice were decapitated 30 minutes after the injection. After decapitation, the gasping times were determined. The results were compared with a control group to which only the liquid medium (i.e., physiological saline) was injected.

Question: With COC1=C(OC)C(=O)C(C(CCC(=O)N2CCSCC2)c2ccccc2)=C(C)C1=O (stereo not drawn) [Example 1, 4-(3,4-dimethoxy-6-methyl-2,5-benzoquinonyl)-4-phenyl-1-thiomorpholine-1-oxobutane] as the compound, how does the LD50 [1] read?
Answer: > 1000 mg/kg

Question: What about the minimal effective dose [2] of the same compound?
Answer: 6.25 mg/kg

Question: What about the minimal effective dose ([3]; Mus musculus, 30 minutes before decapitation, gasping time vs. control, read-out: Global Ischemia (Minimum effective dose)) of the same compound?
Answer: 12.5 mg/kg

Question: Which minimal effective dose [2] does the source give for COC1=C(OC)C(=O)C(C(CCC(=O)N2CCN(C)CC2)c2ccccc2)=C(C)C1=O (stereo not drawn) [Example 3, 4-(3,4-Dimethoxy-6-methyl-2,5-benzoquinonyl)-4-phenyl-1-(N-methylpiperazinyl)-1-oxobutane] here?
Answer: 25 mg/kg

Question: With COC1=C(OC)C(=O)C(C(CCCC(=O)N2CCSCC2)c2ccccc2)=C(C)C1=O (stereo not drawn) [Example 4, 5-(3,4-dimethoxy-6-methyl-2,5-benzoquinonyl)-5-phenyl-1-thiomorpholino-1-oxopentane] as the compound, how does the LD50 [1] read?
Answer: > 1000 mg/kg

Question: What about the minimal effective dose [2] of the same compound?
Answer: 6.25 mg/kg

Question: Which LD50 [1] does the source give for COC1=C(OC)C(=O)C(C(CCCC(=O)N2CCOCC2)c2ccccc2)=C(C)C1=O (stereo not drawn) [Example 5, 5-(3,4-dimethoxy-6-methyl-2,5-benzoquinonyl)-5-phenyl-1-morpholino-1-oxopentane] here?
Answer: > 1000 mg/kg

Question: And the minimal effective dose [2]?
Answer: 6.25 mg/kg

Question: Which LD50 [1] does the source give for COC1=C(OC)C(=O)C(C(CCC(=O)O)c2ccccc2)=C(C)C1=O (stereo not drawn) [compound 1, 4-(3,4-Dimethoxy-6-methyl-2,5-benzoquinonyl)-4-phenylbutyric acid, reference compound] here?
Answer: > 500 mg/kg

Question: With COC1=C(OC)C(=O)C(C(CCCC(=O)O)c2ccccc2)=C(C)C1=O (stereo not drawn) [compound 2, 5-(3,4-Dimethoxy-6-methyl-2,5-benzoquinonyl)-5-phenylvaleric acid, reference compound] as the compound, how does the LD50 [1] read?
Answer: > 500 mg/kg

Question: For COC1=C(OC)C(=O)C(C(CCCCCC(=O)O)c2ccccc2)=C(C)C1=O (stereo not drawn) [compound 3, 7-(3,4-Dimethoxy-6-methyl-2,5-benzoquinonyl)-7-phenylheptanoic acid, reference compound], which LD50 [1] is on record?
Answer: > 500 mg/kg

Question: And the Gasping time ([3]; 25 mg/kg)?
Answer: Gasping time was shortened
